Measured values published in patent US20220396819A1, “METHOD FOR PRODUCING PEPTIDE HAVING PHYSIOLOGICAL ACTIVITY, AND PEPTIDE COMPRISING SHORT LINKER” (priority 2019, published 2022).
Positions of bridges follow the written chain, without caps; N, C: chain ends. No end group written: not given here.

Columns and labels:
Type in all cases: cell-based
HuCCT1 cells [1] = assay: Tubular structure formation of HuCCT1 cells in collagen gel; details: 40 ng/mL, day 7
From the text: It is known that HGF is allowed to act on HUVEC cells and HuCCT1 cells contained in collagen gel to form a tubular structure (K. Ito, et al. Nat. Commun. 6, 6373, 2015). It has also been reported that a Met full agonist having a function similar to that of HGF can form a tubular structure in the above cells, whereas a partial agonist having only a partial function cannot promote the formation of a tubular structure (W. Miao, et al. Int. J. Mol. Sci. 19, 3141, 2018). Therefore, it was decided to confirm whether the HGF-PAS dimer peptide was a full agonist or a partial agonist by using a tubular structure formation experiment using HuCCT1 cells.
To 8 equivalents of CellMatrix type IA (Nitta Gelatin), 1 equivalent of 10-fold concentrated D-MEM/F12 (Thermo Fisher Scientific) and 1 equivalent of reconstitution buffer (22 g/L sodium bicarbonate, 47.7 g/L HEPES, 0.05N sodium hydroxide aqueous solution) were mixed in order on ice. HuCCT1 cells were added at 25,000 cells per mL of the mixture and mixed on ice. To a 48-well cell culture plate, 400 μL of the above mixture was added, and the mixture was allowed to stand for 4 hours under the conditions of 37° C. and 5% CO2 for gelation. Onto the formed intracellular encapsulated collagen gel, 500 μL of RPMI 1640 medium containing 10% FBS was added. The cell-stimulating group was cultured by adding 35 ng/mL HGF or 40 ng/mL AET-PAS-aMD4dY-PEG11. […]

HuCCT1 cells [2] = assay: Cell proliferation promoting activity in HuCCT1 cell culture; details: HGF 35 ng/mL or peptide 40 ng/mL, 5 days, N=3, FIG. 12
Protocol: HGF has been reported to promote cell proliferation by activating Met (K. Ito, et al. Nat. Commun. 6, 6373, 2015). Therefore, HuCCT1 cell culture was used to evaluate whether the HGF-PAS dimer peptide had the same activity of promoting cell proliferation as HGF.
RPMI 1640 medium (Nacalai Tesque) containing 5% FBS was added to a 24-well cell culture plate, and HuCCT1 cells were seeded at 5,000 cell/well. HGF at 35 ng/mL or AET-PAS-aMD4dY-PEG11 at 40 ng/mL was added, and the cells were cultured at 37° C. and 5% CO2 for 5 days. The cells were detached with 0.25% Trypsin/EDTA (Thermo Fisher Scientific) and the number of cells was quantified with Countess Automated Cell Counter (Thermo Fisher Scientific) (N=3).

HuCCT1 cells [3] = assay: Wound healing effect, scratch in HuCCT1 cell culture; details: 33 ng/mL HGF or 100 ng/mL peptide, N=4, FIG. 16
Protocol: HGF has been reported to promote cell wound healing ability by activating Met (K. Ito, et al. Nat. Commun. 6, 6373, 2015). Therefore, HuCCT1 cell culture was used to evaluate whether the HGF-PAS dimer peptide would promote wound healing as HGF.
To 96-well cell culture plates, 50,000 HuCCT1 cells suspended in RPMI 1640 medium with 10% FBS were added per well and incubated overnight under the conditions of 37° C. and 5% CO2. Cells in the center of the culture wells were scraped using a 1000 μL Thermo Scientific ART chip (Thermo Fisher Scientific) and washed with low serum medium (RPMI 1640 medium with 0.5% FBS). Low serum medium containing 33 ng/mL HGF or 100 ng/mL AET-PAS-aMD4dY-PEG11 was added, and the cells were cultured under the conditions of 37° C. and 5% CO2. BioStudio-T (Nikon Corporation) was used for cell observation, and cells were automatically photographed every hour. The rate of wound healing (μm/h) was calculated as ((wound width 1 hour after wound creation)−(wound width 7 hours after wound creation))/6 (N=4).

| Substance | agonist type (full or partial) for Met (HuCCT1 cells [1]) | proliferation ability relative to the non-added group (Mock) (HuCCT1 cells [2]) | improvement of the rate of wound healing (HuCCT1 cells [3]) |
| --- | --- | --- | --- |
| AETCRQFNRRTHEVWNLDCGAAPAAPAPAAPAAPAPAAPAAPGCRQFNRRTHEVWNLDC (disulfide 4-19, 44-59; also: PEG11) [AET-PAS-aMD4dY-PEG11] | full agonist for Met | about 2.5 times | about 1.6 times |
| HGF: recombinant human HGF (rhHGF, R&D Systems) | – | about 2.5 times | about 1.6 times |
